Assay results: patent publication US10676429B2, “Sulfamoyl-arylamides and the use thereof as medicaments for the treatment of hepatitis B” (priority 2012, dated 2020)

Legend:
HBV [1] = assay: Anti-HBV activity in stable transfected HepG2.2.15 cell line (HBV DNA from secreted virions, realtime PCR); assay type: cell-based; details: HepG2.2.15 cells, 6 days of treatment, secreted virion HBV DNA, read-out: HepG2 2.15 EC50
HBV [2] = assay: Anti-HBV activity in HepG2.117 cell line (Tet-off, intracellular HBV DNA, realtime PCR); assay type: cell-based; details: HepG2.117 cells, 3 days of treatment, intracellular HBV DNA, read-out: HepG2 117 EC50
[3] = Cytotoxicity in HepG2 cells, 4 days, Resazurin assay; details: human, HepG2 cells
[4] = Hepatitis B virus, HepG2.2.15, 144 h
[5] = Hepatitis B virus, HepG2.117, 72 h

SMILES	EC50 (HBV [1]; [4]) [nM]	EC50 (HBV [2]; [5]) [nM]	CC50 at 4 days [3] [nM]	EC50 (HBV [2]) [nM]	EC50 (HBV [1]) [nM]
Cc1cc(NC(=O)c2cccc(S(=O)(=O)N[C@H]3c4ccccc4C[C@@H]3O)c2)ccc1F [Compound 176]	620	560	> 25000		
Cc1cc(NC(=O)c2cccc(S(=O)(=O)NC(C)c3ccncc3)c2)ccc1F (stereo not shown) [Compound 161]	200	350	> 25000		
Cc1ccc(S(=O)(=O)NC2(C)COC2)c(F)c1C(=O)Nc1ccc(F)c(C#N)c1 [Compound 191]	330	360	> 25000		
CC(C)NS(=O)(=O)c1cccc(C(=O)Nc2ccc(F)c(C(C)C)c2)c1 [Compound 95]	1400	2790	> 25000		
COC(=O)N1CC(NS(=O)(=O)c2cccc(C(=O)Nc3ccc(F)c(C)c3)c2)C1 [Compound 185]	220	620	> 25000		
Cc1cc(NC(=O)c2cccc(S(=O)(=O)NC(C)c3ccccn3)c2)ccc1F (stereo not shown) [Compound 163]	530	8530	> 25000		
Cc1cc(NC(=O)c2cccc(S(=O)(=O)N[C@H]3CCC[C@H]3O)c2)ccc1F [Compound 139]	1000	1750	> 25000		
Cc1cc(NC(=O)c2cccc(S(=O)(=O)N[C@H]3CCOC3)c2Cl)ccc1F [Compound 124]	330	680	> 25000		
Cc1cc(NC(=O)c2cccc(S(=O)(=O)N[C@H](C)[C@H](O)c3ccccc3)c2)ccc1F [Compound 142]	140	560	> 25000		
O=C(Nc1ccc(F)cc1)c1cccc(S(=O)(=O)N2CCCC2)c1 [Compound 36]	4530	3030	97000		
Cc1cc(NC(=O)c2cccc(S(=O)(=O)N[C@@H]3CCCC[C@H]3O)c2)ccc1F (racemic) [Compound 130]	880	1030	> 25000		
CCc1cc(NC(=O)c2cccc(S(=O)(=O)NC(C)C)c2)ccc1F [Compound 92]	310	2590	> 25000		
CC1(NS(=O)(=O)c2ccc(Cl)c(C(=O)Nc3ccc(F)c(C(F)(F)F)c3)c2F)COC1 [Compound 208]		> 1000	> 25000		
CC1(NS(=O)(=O)c2ccc(Cl)c(C(=O)Nc3cc(F)c(F)c(Cl)c3)c2F)COC1 [Compound 210]		460	> 25000		
CC1(NS(=O)(=O)c2ccc(F)c(C(=O)Nc3ccc(F)c(F)c3)c2Cl)COC1 [Compound 211]		650	> 25000		
Cc1cc(NC(=O)c2cccc(S(=O)(=O)NC3CCCC(O)C3)c2)ccc1F (stereo not shown) [Compound 134]			> 25000	570	
Cc1cc(NC(=O)c2cc(S(=O)(=O)NC3(C)COC3)ccc2Cl)ccc1F [Compound 232]		310	> 25000		
Cc1cc(NC(=O)c2c(Br)ccc(S(=O)(=O)NC3(C)COC3)c2F)ccc1F [Compound 213]		280	> 25000		
CC(C)NS(=O)(=O)c1ccc(F)c(C(=O)Nc2cccc(C(F)(F)F)c2)c1F [Compound 203]		240	16700		
Cc1cc(NC(=O)c2cccc(S(=O)(=O)NC(C)(C)C)c2F)ccc1F [Compound 221]		130	> 25000		
O=C(Nc1ccccc1)c1csc(S(=O)(=O)NC2CCCCC2)n1 [Compound 64]		7830	> 25000		
CC1(NS(=O)(=O)c2ccc(Cl)c(C(=O)Nc3ccc(F)c(C#N)c3)c2F)COC1 [Compound 207]		> 1000	> 25000		
CC1(NS(=O)(=O)c2cccc(C(=O)Nc3ccc(F)c(C(F)(F)F)c3)c2F)COC1 [Compound 219]		460	> 25000		
O=C(Nc1ccc(F)c(C(F)(F)F)c1)c1c(F)ccc(S(=O)(=O)N[C@H]2CCOC2)c1F [Compound 200]		450	> 25000		
CC1(NS(=O)(=O)c2ccc(F)c(C(=O)Nc3ccc(F)c(C(F)(F)F)c3)c2Br)COC1 [Compound 212]		7300	> 25000		
COC(=O)N1CCCC(NS(=O)(=O)c2cccc(C(=O)Nc3ccc(F)c(C)c3)c2)C1 (racemic) [Compound 159b]				230	160

SMILES	EC50 (HBV [1]; [4]) [nM]	EC50 (HBV [2]; [5]) [nM]	CC50 at 4 days [3] [nM]	EC50 (HBV [2]) [nM]	EC50 (HBV [1]) [nM]
Cc1cc(NC(=O)c2c(C)ccc(S(=O)(=O)NC(C)(C)C)c2F)ccc1F [Compound 205]		350	> 25000		
COC(=O)N1CCCC(NS(=O)(=O)c2cccc(C(=O)Nc3ccc(F)c(C)c3)c2)C1 (racemic) [Compound 159]	150		> 25000		
Cc1ccc(S(=O)(=O)NC(C)(C)C)c(F)c1C(=O)Nc1ccc(F)c(F)c1 [Compound 206]		640	> 25000		
Cc1cc(NC(=O)c2c(C)ccc(S(=O)(=O)N[C@H]3CCOC3)c2F)ccc1F [Compound 189]		350	> 25000		
Cc1cc(NC(=O)c2cccc(S(=O)(=O)NC3CCCC(O)C3)c2)ccc1F (single isomer, unassigned) [Compound 134b, N-(4-fluoro-3-methyl-phenyl)-3-[[(1R,3S)-3-hydroxycyclohexyl]sulfamoyl]benzamide or N-(4-fluoro-3-methyl-phenyl)-3-[[(1S,3R)-3-hydroxycyclohexyl]sulfamoyl]benzamide]				200	570
COC(=O)N1CCCC(NS(=O)(=O)c2cccc(C(=O)Nc3ccc(F)c(C)c3)c2)C1 (racemic) [Compound 159a]				860	170
Cc1cc(NC(=O)c2cccc(S(=O)(=O)NC3CCCC(O)C3)c2)ccc1F (single isomer, unassigned) [Compound 134c, N-(4-fluoro-3-methyl-phenyl)-3-[[(1R,3R)-3 hydroxycyclohexyl]sulfamoyl]benzamide or N-(4-fluoro-3-methyl-phenyl)-3-[[(1S,3S)-3-hydroxycyclohexyl]sulfamoyl]benzamide]				380	490
Cc1cc(NC(=O)c2c(Br)ccc(S(=O)(=O)NC3(C)COC3)c2F)cc(F)c1F [Compound 216]		290	> 25000		
CC(C)NS(=O)(=O)c1ccc(F)c(C(=O)Nc2ccc(F)c(F)c2)c1F [Compound 202]		110	> 25000		
Cc1cc(NC(=O)c2cccc(S(=O)(=O)NC3CCCC(O)C3)c2)ccc1F (single isomer, unassigned) [Compound 134d, N-(4-fluoro-3-methyl-phenyl)-3-[[(1R,3R)-3 hydroxycyclohexyl]sulfamoyl]benzamide or N-(4-fluoro-3-methyl-phenyl)-3-[[(1S,3S)-3-hydroxycyclohexyl]sulfamoyl]benzamide]				1220	250
Cc1cc(NC(=O)c2c(C)ccc(S(=O)(=O)NC3(C)COC3)c2F)ccc1F [Compound 204]		90	> 25000		
Cc1cc(NC(=O)c2c(Cl)ccc(S(=O)(=O)NC3(C)COC3)c2F)cc(F)c1F [Compound 209]		150	> 25000		
Cc1ccc(S(=O)(=O)NC2(C)COC2)c(F)c1C(=O)Nc1cc(F)c(F)c(Cl)c1 [Compound 192]		190	> 25000		
Cc1cc(NC(=O)c2cccc(S(=O)(=O)NC3(C)CCOC3)c2)ccc1F (stereo not shown) [Compound 223]		210	> 25000		
Cc1c(Br)cc(S(=O)(=O)N[C@H]2CCOC2)c(F)c1C(=O)Nc1ccc(F)c(F)c1 [Compound 187]		950	> 25000		
Cc1ccc(S(=O)(=O)N[C@H](C)C(F)(F)F)c(F)c1C(=O)Nc1cc(F)c(F)c(Cl)c1 [Compound 193]		100	13500		
Cc1ccc(S(=O)(=O)N[C@H]2CCOC2)c(F)c1C(=O)Nc1ccc(F)c(F)c1 [Compound 188]		240	> 25000		
Cc1cc(NC(=O)c2c(C)c(Br)cc(S(=O)(=O)NC3(C)COC3)c2F)ccc1F [Compound 190]		270	> 25000		
O=C(Nc1ccc(F)c(Br)c1)c1c(F)ccc(S(=O)(=O)N[C@H]2CCOC2)c1F [Compound 198]		150	> 25000		
CC1(NS(=O)(=O)c2ccc(Br)c(C(=O)Nc3ccc(F)c(C#N)c3)c2F)COC1 [Compound 214]		> 1000	> 25000		
Cc1cc(NC(=O)c2cccc(S(=O)(=O)NC3CC(=O)N(C)C3)c2)ccc1F (racemic) [Compound 179]			> 25000		
CC1(NS(=O)(=O)c2ccc(Br)c(C(=O)Nc3ccc(F)c(C(F)(F)F)c3)c2F)COC1 [Compound 215]		> 1000	> 25000		
CC1(NS(=O)(=O)c2cccc(C(=O)Nc3ccc(F)cc3)c2)CCOCC1 [Compound 83]	1040	1230			
Cc1cc(NC(=O)c2cccc(S(=O)(=O)NC3CCCC(O)C3)c2)ccc1F (single isomer, unassigned) [Compound 134a, N-(4-fluoro-3-methyl-phenyl)-3-[[(1R,3S)-3-hydroxycyclohexyl]sulfamoyl]benzamide or N-(4-fluoro-3-methyl-phenyl)-3-[[(1S,3R)-3-hydroxycyclohexyl]sulfamoyl]benzamide]				720	660
Cc1cc(NC(=O)c2c(F)ccc(S(=O)(=O)N[C@H]3CCOC3)c2F)ccc1F [Compound 197]		90	> 25000		
N#Cc1cc(NC(=O)c2c(F)ccc(S(=O)(=O)N[C@H]3CCOC3)c2F)ccc1F [Compound 199]		430	> 25000		
